Data as given in ChEMBL document CHEMBL3046116, “QSAR and pharmacophore analysis of thiosemicarbazone derivatives as ribonucleotide reductase inhibitors” (Med Chem Res, 2012).
pIC50: −log10 of the molar value.

Molecular target: T1, Ribonucleoside-diphosphate reductase RR1 (Homo sapiens, UniProt P23921+P31350+Q7LG56)
T1 sequence (P23921 whole entry): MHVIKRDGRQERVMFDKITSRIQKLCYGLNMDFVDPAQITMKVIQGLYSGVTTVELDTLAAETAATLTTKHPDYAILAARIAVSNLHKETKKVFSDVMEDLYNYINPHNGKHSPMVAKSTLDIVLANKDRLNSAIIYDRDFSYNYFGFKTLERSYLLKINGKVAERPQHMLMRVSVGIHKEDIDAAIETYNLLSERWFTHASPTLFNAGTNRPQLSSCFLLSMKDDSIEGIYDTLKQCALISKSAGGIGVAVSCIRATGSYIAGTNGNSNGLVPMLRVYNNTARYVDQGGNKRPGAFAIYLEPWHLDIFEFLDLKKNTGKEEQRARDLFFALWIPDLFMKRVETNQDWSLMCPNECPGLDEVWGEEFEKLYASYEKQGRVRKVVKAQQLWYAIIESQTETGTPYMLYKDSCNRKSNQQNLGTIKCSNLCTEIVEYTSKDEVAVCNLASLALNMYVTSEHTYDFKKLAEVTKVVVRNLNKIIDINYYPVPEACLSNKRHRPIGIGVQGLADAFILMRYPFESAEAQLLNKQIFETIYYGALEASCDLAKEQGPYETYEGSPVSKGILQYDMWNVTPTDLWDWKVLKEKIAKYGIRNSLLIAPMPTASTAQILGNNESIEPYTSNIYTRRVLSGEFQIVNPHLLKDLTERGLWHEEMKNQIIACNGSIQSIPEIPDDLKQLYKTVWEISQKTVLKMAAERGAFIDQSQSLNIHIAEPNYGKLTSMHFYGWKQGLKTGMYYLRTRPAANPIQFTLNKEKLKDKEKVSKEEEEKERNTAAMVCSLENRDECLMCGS
T1 sequence (Q7LG56 whole entry): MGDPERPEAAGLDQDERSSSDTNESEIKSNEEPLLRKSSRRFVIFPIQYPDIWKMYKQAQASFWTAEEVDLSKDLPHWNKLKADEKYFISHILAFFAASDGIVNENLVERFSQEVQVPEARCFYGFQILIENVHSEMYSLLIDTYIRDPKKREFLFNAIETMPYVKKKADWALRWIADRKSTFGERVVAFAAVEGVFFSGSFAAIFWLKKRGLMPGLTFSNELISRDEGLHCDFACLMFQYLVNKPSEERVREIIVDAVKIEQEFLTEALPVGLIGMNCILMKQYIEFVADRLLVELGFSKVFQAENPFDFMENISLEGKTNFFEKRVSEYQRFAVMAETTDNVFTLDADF
T1 sequence (P31350 whole entry): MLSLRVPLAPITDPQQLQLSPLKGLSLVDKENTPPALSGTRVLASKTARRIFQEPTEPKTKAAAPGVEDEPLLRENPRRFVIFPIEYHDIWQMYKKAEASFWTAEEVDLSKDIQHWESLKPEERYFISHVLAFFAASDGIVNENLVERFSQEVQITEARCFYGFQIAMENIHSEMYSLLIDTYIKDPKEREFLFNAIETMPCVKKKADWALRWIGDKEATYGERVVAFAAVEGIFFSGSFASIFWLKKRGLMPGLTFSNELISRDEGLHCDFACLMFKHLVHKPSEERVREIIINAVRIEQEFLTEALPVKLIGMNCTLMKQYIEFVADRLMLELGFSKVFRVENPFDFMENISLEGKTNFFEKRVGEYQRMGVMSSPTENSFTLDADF
Assay: Inhibition of N-terminal 6xHis-tagged Homo sapiens (human) recombinant ribonucleotide reductase M2/M1 expressed in Escherichia coli BL21 (DE3) using [3H]CDP as substrate after 30 min

Structure (SMILES)	pIC50
Cc1ccc(NC(=S)N/N=C/c2ccc(O)cc2)cc1	4.85
Cc1cccc(NC(=S)N/N=C/c2ccc(O)cc2)c1	4.52
O=[N+]([O-])c1ccc(NC(=S)N/N=C/c2ccc(O)cc2)cc1	4.35
Oc1ccc(/C=N/NC(=S)Nc2ccc(O)cc2)cc1	4.36
O=[N+]([O-])c1ccccc1NC(=S)N/N=C/c1ccc(O)cc1	4.41
Oc1ccc(/C=N/NC(=S)Nc2ccccc2)cc1	3.62
Oc1ccc(/C=N/NC(=S)Nc2ccccc2O)cc1	4.53
Oc1ccc(/C=N/NC(=S)Nc2cccc(Cl)c2)cc1	4.53
COc1ccccc1NC(=S)N/N=C/c1ccc(O)cc1	4.38
Oc1ccc(/C=N/NC(=S)Nc2ccc(Cl)cc2)cc1	3.54
Cc1ccccc1NC(=S)N/N=C/c1ccc(O)cc1	4.44
Oc1ccc(/C=N/NC(=S)Nc2cccc(O)c2)cc1	4.54
Oc1ccc(/C=N/NC(=S)Nc2ccccc2Cl)cc1	4.33
